Reference: patent US20230286975A1, “IMPROVED METHOD FOR THE PRODUCTION OF LYSERGIC ACID DIETHYLAMIDE (LSD) AND NOVEL DERIVATIVES THEREOF” (COMPASS […], priority 2020, published 2023)

Columns and labels:
[1] = molecular target: T1, Human recombinant serotonin 5-HT2B receptor (Homo sapiens, UniProt P41595); experiment: 5-HT2B receptor radioligand binding inhibition ([3H]LSD); conditions: for inhibition at 10 µM: screened at 10 μM, mean of two replicates
T1 construct: expressed in transfected cells; host or cells: CHO-K1
T1 sequence (P41595 whole entry): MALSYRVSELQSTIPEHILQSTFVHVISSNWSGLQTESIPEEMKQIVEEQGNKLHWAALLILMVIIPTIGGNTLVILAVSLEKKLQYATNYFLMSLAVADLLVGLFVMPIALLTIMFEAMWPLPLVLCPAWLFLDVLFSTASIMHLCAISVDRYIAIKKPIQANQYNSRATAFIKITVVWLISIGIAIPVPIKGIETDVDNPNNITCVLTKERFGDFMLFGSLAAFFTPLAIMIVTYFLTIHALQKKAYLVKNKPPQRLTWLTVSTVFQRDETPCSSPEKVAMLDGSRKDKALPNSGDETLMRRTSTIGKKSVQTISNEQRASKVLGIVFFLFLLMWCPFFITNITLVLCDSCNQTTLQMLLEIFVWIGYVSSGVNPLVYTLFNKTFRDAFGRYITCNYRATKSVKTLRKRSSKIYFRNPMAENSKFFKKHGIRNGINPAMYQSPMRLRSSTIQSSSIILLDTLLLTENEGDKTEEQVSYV
Experimental: (§1) Four novel LSD derivatives according to the present invention (referred to as “Compound 1”, “Compound 2”, “Compound 3”, and “Compound 4”; structures depicted below) were screened at 10 μM at key receptors of interest in order to determine % binding inhibition. Targets were selected due to prior evidence that LSD binds these targets with moderate or high affinities in vitro, as well as their functional significance in the context of human health.
Human recombinant serotonin 5-HT2B receptor expressed in CHO-K1 cells were used to prepare membranes in modified Tris-HCl buffer pH 7.4. A 30 μg aliquot of membrane protein was incubated with 1.2 nM [^3H]LSD for 60 minutes at 37° C. Non-specific binding was estimated in the presence of 10 μM serotonin. Membranes were filtered and washed, the filters were then counted to determine [^3H]LSD specifically bound. Test compounds were screened at 10 μM.
(§2) Experimental results were expressed as a percent of control specific binding, via the equation: […]
(§3) For each target, data from two experimental replicates were averaged to generate a mean % inhibition.

[2] = molecular target: T2, Human recombinant serotonin 5-HT2A receptors (Homo sapiens, UniProt P28223); experiment: 5-HT2A receptor radioligand binding inhibition ([3H]Ketanserin); conditions: for selectivity as ligand of the 5-HT2A receptor, in words: conclusion from % inhibition at 10 μM over ten receptors; for inhibition at 10 µM: screened at 10 μM, mean of two replicates; for interaction at 5-HT2A receptor, in words: 10 μM, % inhibition greater than 50% interpreted as potentially significant interaction
T2 construct: expressed in transfected cells; host or cells: CHO-K1
T2 sequence (P28223 whole entry): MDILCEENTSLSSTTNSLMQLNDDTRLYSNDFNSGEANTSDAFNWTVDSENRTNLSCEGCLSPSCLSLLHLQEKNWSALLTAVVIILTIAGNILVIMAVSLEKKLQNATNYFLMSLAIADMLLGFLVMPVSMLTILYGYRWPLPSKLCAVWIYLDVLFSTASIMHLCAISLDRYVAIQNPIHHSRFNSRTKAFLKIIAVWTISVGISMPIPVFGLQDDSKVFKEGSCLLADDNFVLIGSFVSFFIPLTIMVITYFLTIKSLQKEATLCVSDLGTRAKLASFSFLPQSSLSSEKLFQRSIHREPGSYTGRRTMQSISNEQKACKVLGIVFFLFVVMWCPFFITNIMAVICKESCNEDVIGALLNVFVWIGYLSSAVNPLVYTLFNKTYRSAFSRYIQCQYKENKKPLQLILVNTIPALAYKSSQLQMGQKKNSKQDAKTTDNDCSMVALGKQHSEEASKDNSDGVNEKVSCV
Experimental: as §1
Human recombinant serotonin 5-HT2A receptors expressed in CHO-K1 cells were used in modified Tris-HCl buffer pH 7.4. A 30 μg aliquot of membrane protein was incubated with 0.5 nM [^3H]Ketanserin for 60 minutes at 25° C. Non-specific binding was estimated in the presence of 1 μM Mianserin. Receptors were filtered and washed, the filters were then counted to determine [^3H]Ketanserin specifically bound. Test compounds were screened at 10 μM.
as §2, §3

[3] = molecular target: T3, human recombinant serotonin 5-HT2c receptors (Homo sapiens, UniProt P28335); experiment: 5-HT2C receptor radioligand binding inhibition ([3H]Mesulergine); conditions: for inhibition at 10 µM: screened at 10 μM, mean of two replicates; for interaction at 5-HT2C receptor, in words: 10 μM, % inhibition greater than 50% interpreted as potentially significant interaction
T3 construct: expressed in transfected cells; host or cells: CHO-K1 (stably transfected)
T3 sequence (P28335 33-458): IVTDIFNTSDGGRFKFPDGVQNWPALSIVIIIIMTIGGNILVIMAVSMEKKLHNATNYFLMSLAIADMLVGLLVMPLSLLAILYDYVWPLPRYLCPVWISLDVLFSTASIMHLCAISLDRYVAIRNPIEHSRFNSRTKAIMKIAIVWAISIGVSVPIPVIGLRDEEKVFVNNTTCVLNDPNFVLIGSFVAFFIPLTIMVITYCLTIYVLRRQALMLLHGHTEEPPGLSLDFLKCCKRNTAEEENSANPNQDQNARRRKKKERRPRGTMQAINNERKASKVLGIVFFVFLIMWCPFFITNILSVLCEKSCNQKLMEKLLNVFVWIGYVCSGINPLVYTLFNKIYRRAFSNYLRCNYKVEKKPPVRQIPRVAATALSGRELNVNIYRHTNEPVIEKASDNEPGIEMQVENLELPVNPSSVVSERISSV
Experimental: as §1
CHO-K1 cells stably transfected with a plasmid encoding the human recombinant serotonin 5-HT2c receptors were used to prepare membranes in modified Tris-HCl buffer pH 7.4. A 3.2 μg aliquot of membrane protein was incubated with 1.0 nM [^3H]Mesulergine for 60 minutes at 25° C. Non-specific binding was estimated in the presence of 1 μM Mianserin. Membranes were filtered and washed, the filters were then counted to determine [^3H]Mesulergine specifically bound. Test compounds were screened at 10 μM.
as §2, §3

[4] = molecular target: T4, Human recombinant dopamine D1 receptors (Homo sapiens, UniProt P21728); experiment: D1 receptor radioligand binding inhibition ([3H]SCH-23390); conditions: for inhibition at 10 µM: screened at 10 μM, mean of two replicates
T4 construct: expressed in transfected cells; host or cells: CHO
T4 sequence (P21728 whole entry): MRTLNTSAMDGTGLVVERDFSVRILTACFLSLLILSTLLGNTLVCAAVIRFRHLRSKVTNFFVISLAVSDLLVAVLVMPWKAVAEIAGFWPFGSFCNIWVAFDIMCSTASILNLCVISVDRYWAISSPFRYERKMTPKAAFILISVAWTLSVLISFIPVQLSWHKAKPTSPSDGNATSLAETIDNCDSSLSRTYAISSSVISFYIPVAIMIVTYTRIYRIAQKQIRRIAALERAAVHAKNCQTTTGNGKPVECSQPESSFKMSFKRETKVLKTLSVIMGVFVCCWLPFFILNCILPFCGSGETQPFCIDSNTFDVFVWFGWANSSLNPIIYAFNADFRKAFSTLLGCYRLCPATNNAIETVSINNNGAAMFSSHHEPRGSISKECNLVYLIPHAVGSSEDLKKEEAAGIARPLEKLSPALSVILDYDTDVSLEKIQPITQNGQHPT
Experimental: as §1
Human recombinant dopamine D1 receptors expressed in CHO cells were used in modified Tris-HCl buffer pH 7.4. A 20 μg aliquot was incubated with 1.4 nM [^3H]SCH-23390 for 120 minutes at 37° C. Non-specific binding was estimated in the presence of 10 μM (+)-butaclamol. Receptors were filtered and washed, the filters were then counted to determine [^3H]SCH-23390 specifically bound. Test compounds were screened at 10 μM.
as §2, §3

[5] = test system: human dopamine D4.7 receptor; experiment: D4.7 receptor radioligand binding inhibition ([3H]Spiperone); conditions: for % inhibition, D4.7: screened at 10 μM, mean of two replicates; for interaction at D4.7 receptor, in words: 10 μM, % inhibition greater than 50% interpreted as potentially significant interaction
Experimental: as §1
CHO-K1 cells stably transfected with a plasmid encoding the human dopamine D4.7 receptor were used to prepare membranes in modified Tris-HCl buffer pH 7.4. A 60 μg aliquot of membrane was incubated with 1.5 nM [^3H]Spiperone for 120 minutes at 25° C. Non-specific binding was estimated in the presence of 10 μM haloperidol. Membranes were filtered and washed, the filters were then counted to determine [^3H]Spiperone specifically bound. Test compounds were screened at 10 μM.
as §2, §3

[6] = molecular target: T5, Human recombinant dopamine D3 receptors (Homo sapiens, UniProt P35462); experiment: D3 receptor radioligand binding inhibition ([3H]Spiperone); conditions: for inhibition at 10 µM: screened at 10 μM, mean of two replicates
T5 construct: expressed in transfected cells; host or cells: CHO
T5 sequence (P35462 whole entry): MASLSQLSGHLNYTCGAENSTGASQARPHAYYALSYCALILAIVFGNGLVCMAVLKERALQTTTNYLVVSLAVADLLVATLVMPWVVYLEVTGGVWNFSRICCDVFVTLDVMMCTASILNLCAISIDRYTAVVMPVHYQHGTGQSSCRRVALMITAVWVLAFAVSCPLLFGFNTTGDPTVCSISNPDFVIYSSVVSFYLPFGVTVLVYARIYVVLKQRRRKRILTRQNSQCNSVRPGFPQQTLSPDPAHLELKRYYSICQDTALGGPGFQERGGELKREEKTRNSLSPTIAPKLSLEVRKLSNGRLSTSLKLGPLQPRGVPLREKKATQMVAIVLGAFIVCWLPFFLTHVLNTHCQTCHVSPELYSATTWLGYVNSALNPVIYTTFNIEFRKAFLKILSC
Experimental: as §1
Human recombinant dopamine D3 receptors expressed in CHO cells were used in modified Tris-HCl buffer pH 7.4. A 10 μg aliquot was incubated with 0.7 nM [^3H]Spiperone for 120 minutes at 37° C. Non-specific binding was estimated in the presence of 25 μM S(−)-sulpiride. Receptors were filtered and washed, the filters were then counted to determine [^3H]Spiperone specifically bound. Test compounds were screened at 10 μM.
as §2, §3

[7] = molecular target: T6, Human recombinant adenosine A2A receptors (Homo sapiens, UniProt P29274); experiment: A2A receptor radioligand binding inhibition ([3H]CGS-21680); conditions: for interaction at A2A receptor, in words: 10 μM, % inhibition greater than 50% interpreted as potentially significant interaction; for inhibition at 10 µM: screened at 10 μM, mean of two replicates
T6 construct: expressed in transfected cells; host or cells: HEK-293
T6 sequence (P29274 whole entry): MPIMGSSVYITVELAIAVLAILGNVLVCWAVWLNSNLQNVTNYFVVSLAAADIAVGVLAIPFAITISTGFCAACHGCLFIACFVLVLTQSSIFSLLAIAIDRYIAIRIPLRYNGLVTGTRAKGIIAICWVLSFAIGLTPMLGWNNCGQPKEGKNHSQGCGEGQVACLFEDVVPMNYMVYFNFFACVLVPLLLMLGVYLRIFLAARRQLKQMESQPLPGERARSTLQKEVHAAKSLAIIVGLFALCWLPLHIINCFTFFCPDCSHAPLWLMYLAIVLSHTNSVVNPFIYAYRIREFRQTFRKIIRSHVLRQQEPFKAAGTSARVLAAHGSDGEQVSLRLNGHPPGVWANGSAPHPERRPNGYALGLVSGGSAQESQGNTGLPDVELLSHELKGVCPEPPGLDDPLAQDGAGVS
Experimental: as §1
Human recombinant adenosine A2A receptors expressed in human HEK-293 cells were used in modified Tris-HCl buffer pH 7.4. A 15 μg aliquot was incubated with 50 nM [^3H]CGS-21680 for 90 minutes at 25° C. Non-specific binding was estimated in the presence of 50 μM NECA. Receptor were filtered and washed, the filters were then counted to determine [^3H]CGS-21680 specifically bound. Test compounds were screened at 10 μM.
as §2, §3

[8] = molecular target: T7, Human recombinant dopamine D2L receptor (Homo sapiens, UniProt P14416); experiment: D2L receptor radioligand binding inhibition ([3H]Spiperone); conditions: for inhibition at 10 µM: screened at 10 μM, mean of two replicates
T7 construct: expressed in transfected cells; host or cells: CHO
T7 sequence (P14416 whole entry): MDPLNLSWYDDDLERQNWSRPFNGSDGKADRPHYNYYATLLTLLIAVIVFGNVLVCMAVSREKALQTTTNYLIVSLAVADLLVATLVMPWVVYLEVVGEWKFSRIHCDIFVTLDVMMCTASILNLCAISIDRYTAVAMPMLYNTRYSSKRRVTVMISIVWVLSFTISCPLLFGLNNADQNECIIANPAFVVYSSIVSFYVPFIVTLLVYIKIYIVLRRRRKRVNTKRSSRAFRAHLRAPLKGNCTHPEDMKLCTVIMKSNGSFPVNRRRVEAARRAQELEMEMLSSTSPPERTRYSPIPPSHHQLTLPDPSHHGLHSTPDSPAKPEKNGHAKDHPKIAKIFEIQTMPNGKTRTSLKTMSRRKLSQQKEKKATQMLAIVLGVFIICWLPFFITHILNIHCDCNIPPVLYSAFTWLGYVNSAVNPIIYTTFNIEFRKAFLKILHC
Experimental: as §1
Human recombinant dopamine D2L receptor expressed in CHO cells were used in modified Tris-HCl buffer pH 7.4. A 20 μg aliquot was incubated with 0.16 nM [^3H]Spiperone for 120 minutes at 25° C. Non-specific binding was estimated in the presence of 10 μM haloperidol. Receptor proteins were filtered and washed, the filters were then counted to determine [^3H]Spiperone specifically bound. Test compounds were screened at 10 μM.
as §2, §3

[9] = molecular target: T8, Human recombinant serotonin 5-HT1A receptors (Homo sapiens, UniProt P08908); experiment: 5-HT1A receptor radioligand binding inhibition ([3H]8-OH-DPAT); conditions: for inhibition at 10 µM: screened at 10 μM, mean of two replicates; for interaction at 5-HT1A receptor, in words: 10 μM, % inhibition greater than 50% interpreted as potentially significant interaction
T8 construct: expressed in transfected cells; host or cells: CHO-K1
T8 sequence (P08908 1-422): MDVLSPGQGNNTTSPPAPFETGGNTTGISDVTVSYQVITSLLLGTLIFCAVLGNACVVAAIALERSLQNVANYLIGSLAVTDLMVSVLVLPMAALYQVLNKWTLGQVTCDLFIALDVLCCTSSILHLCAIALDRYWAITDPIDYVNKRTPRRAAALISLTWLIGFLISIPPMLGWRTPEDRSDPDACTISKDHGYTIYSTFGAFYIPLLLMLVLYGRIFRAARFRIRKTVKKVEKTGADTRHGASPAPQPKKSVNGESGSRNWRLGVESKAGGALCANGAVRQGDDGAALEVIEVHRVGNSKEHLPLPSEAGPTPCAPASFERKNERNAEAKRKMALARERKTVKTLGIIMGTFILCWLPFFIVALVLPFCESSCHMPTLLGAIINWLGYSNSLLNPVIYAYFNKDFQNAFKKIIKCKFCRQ
Experimental: as §1
Human recombinant serotonin 5-HT1A receptors expressed in CHO-K1 cells were used in modified Tris-HCl buffer pH 7.4. An 8 μg aliquot of membrane protein was incubated with 1.5 nM [^3H]8-OH-DPAT for 60 minutes at 25° C. Non-specific binding was estimated in the presence of 10 μM metergoline. Receptors were filtered and washed, the filters were then counted to determine [^3H]8-OH-DPAT specifically bound. Test compounds were screened at 10 μM.
as §2, §3

[10] = molecular target: T9, Human recombinant dopamine D2S receptors (Homo sapiens, UniProt P14416); experiment: D2S receptor radioligand binding inhibition ([3H]Spiperone); conditions: for inhibition at 10 µM: screened at 10 μM, mean of two replicates
T9 construct: expressed in transfected cells; host or cells: CHO
T9 sequence (P14416 1-414 isoform P14416-2): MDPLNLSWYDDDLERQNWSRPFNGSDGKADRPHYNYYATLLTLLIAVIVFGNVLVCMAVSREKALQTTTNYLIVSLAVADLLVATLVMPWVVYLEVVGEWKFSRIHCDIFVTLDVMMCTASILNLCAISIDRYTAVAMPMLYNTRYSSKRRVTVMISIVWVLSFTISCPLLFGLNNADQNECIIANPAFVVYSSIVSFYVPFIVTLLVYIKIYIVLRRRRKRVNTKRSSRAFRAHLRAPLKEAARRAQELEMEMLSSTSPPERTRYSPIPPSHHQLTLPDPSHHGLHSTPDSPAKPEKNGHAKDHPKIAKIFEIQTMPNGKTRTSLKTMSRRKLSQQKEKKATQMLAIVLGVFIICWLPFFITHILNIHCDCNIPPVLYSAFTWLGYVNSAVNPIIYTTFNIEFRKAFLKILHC
Experimental: as §1
Human recombinant dopamine D2S receptors expressed in CHO cells were used in modified Tris-HCl buffer pH 7.4. A 15 μg aliquot was incubated with 0.16 nM [^3H]Spiperone for 120 minutes at 25° C. Non-specific binding was estimated in the presence of 10 μM haloperidol. Receptors were filtered and washed, the filters were then counted to determine [^3H]Spiperone specifically bound. Test compounds were screened at 10 μM.
as §2, §3

[11] = 10 μM, % inhibition greater than 50% interpreted as potentially significant interaction

SMILES | inhibition at 10 µM [1] | selectivity as ligand of the 5-HT2A receptor, in words [2] | inhibition at 10 µM [2] | inhibition at 10 µM [3] | inhibition at 10 µM [4] | % inhibition, D4.7 [5] | inhibition at 10 µM [6] | interaction at A2A receptor, in words [7] | inhibition at 10 µM [7] | inhibition at 10 µM [8] | inhibition at 10 µM [9] | inhibition at 10 µM [10] | interaction at 5-HT2A receptor, in words [2] | interaction at 5-HT2C receptor, in words [3] | interaction at D4.7 receptor, in words [5] | interaction at 5-HT1A receptor, in words [9] | also measured
CCN(CCF)C(=O)C1C=C2c3cccc4[nH]cc(c34)CC2N(C)C1 (centres unmarked) [Compound 4, lysergic acid monofluoro diethylamide] | 97.9% | advantageously selective ligands of the 5-HT2A receptor | 97.1% | 100% | 97.1% | 71.6% | 97.7% | no significant interaction | 12.3% | 92.7% | 100% | 92.1% |  |  |  |  | 
CN1CC(C(=O)N2CC3(COC3)C2)C=C2c3cccc4[nH]cc(c34)CC21 (centres unmarked) [Compound 1, 2-oxa-6-azaspiro[3.3]heptyl-lysergic acid amide] | 96.8% |  | 95.3% | 85.8% | 85.6% |  | 94.5% |  | -12.3% | 78.8% | 96.3% | 83.1% |  |  |  |  | 
CCN(CC)C(=O)C1C=C2c3cccc4[nH]cc(c34)CC2N(CCF)C1 (centres unmarked) [Compound 2, 6-(2-mono-fluoro-ethyl)-6-nor-lysergic acid diethylamide] | 90.5% | advantageously selective ligands of the 5-HT2A receptor | 95.7% | 4.8% | 4.3% | 2.8% | 14.2% | no significant interaction | -2.5% | 7.9% | 100% | 0.6% | very high % inhibition | no significant interaction | no significant interaction | very high % inhibition | interaction at D1 receptor, in words [4, 11]: no significant interaction; interaction at D3 receptor, in words [6, 11]: no significant interaction; interaction at D2L receptor, in words [8, 11]: no significant interaction; interaction at D2S receptor, in words [10, 11]: no significant interaction
CN1CC(C(=O)NCC(F)(F)F)C=C2c3cccc4[nH]cc(c34)CC21 (centres unmarked) [Compound 3, lysergic acid mono-(trifluoroethyl)amide] | 94.9% | advantageously selective ligands of the 5-HT2A receptor | 93.1% | 89.4% | 53.8% | 20.1% | 94.7% | no significant interaction | -2% | 63.1% | 101% | 64.2% | significant interaction | significant interaction | no significant interaction | significant interaction | interaction at 5-HT2B receptor, in words [1, 11]: significant interaction; D3 % inhibition compared with other dopamine receptors, in words ([6]; 10 μM, may indicate greater selectivity for D3): higher % inhibition than at other dopamine receptors
